Data taken from patent US20050192279A1, “Pyridazinones as antagonists of alpha4 integrins” (priority 2004, published 2005).

Experiments:
[1] = test system: DSS induced colitis; experiment: Dextran Sulfate Sodium (DSS) Induced Colitis; assay type: in vivo, Balb/c female mice and C57Black/6 mice
Text: In Vivo Model for Colitis: Dextran Sulfate Sodium (DSS) Induced Colitis Inflammatory bowel diseases such as ulcerative colitis and Crohn's disease are characterized by diminished intestinal barrier function, apparent inflammatory damage that may include erosive loss of intestinal mucosa, and inflammatory infiltrates in the mucosa and submucosa. […] Among the many possible chemicals used are dextran sulfate sodium (DSS) and trinitrobenzene sulfonic acid (TNBS). The dextran sulfate sodium model of experimental colitis is characterized by a shrinkage of the colon's length, macrosopic inflammatory damage, diarrhea, a discontinuous pattern of mucosal epithelial damage in the distal colon with infiltration of inflammatory cells that include macrophages and neutrophils into the mucosa and submucosa (Blumberg, R. S., Saubermann, L. J., and Strober, W. Animal models of mucosal inflammation and their relation to human inflammatory bowel disease. Current Opinion in Immunology, 11: 648-656, 1999; […]., and Nakaya, R. A novel method of induction of reliable experimental acute and chronic colitis in mice. […] Cooper, […]., and […]. Clinicopathologic study of dextran sulfate sodium experimental murine colitis. Lab Invest., 69: 238-249, 1993; […]., Bajaj-Elliott, M., MacDonald, […]., and Buchler, M. W. Characterization of acute murine dextran sodium sulphate colitis: Cytokine profile and dose dependency. Digestion, 62: 240-248, 2000; […]., Husband, A. J., and Doe, W. F. The inflammatory infiltrate in the acute stage of the dextran sulphate sodium induced colitis: B cell response differs depending on the percentage of DSS used to induce it. BMC Clinical Pathology, 1: 3-13, 2001; and Diaz-Granados, Howe, K., Lu, J, and […]. Dextran sulfate sodium-induced colonic histopathology, but not altered epithelial ion transport, is reduced by inhibition of phosphodiesterase activity. Amer. J. Pathology, 156: 2169-2177, 2000). Balb/c female mice and […]/6 mice were used in these studies. […] When […]/6 mice were used, a solution of tap water containing 4% DSS was used. During the ensuing 7-day period, test animals were administered a preparation of an experimental compound. This material may be administered orally or intraperitoneally or subcutaneously, once or twice daily. At the end of this period, the animals were euthanized and their colons were collected for further analysis. Among the parameters analyzed were the length of the colon starting from the anus to the top of the cecum, the consistency of any stools found within the colon, and the gross macroscopic appearance of the colon. The distal colon between the 1st and the 4th centimeter was removed and placed in 10% neutral buffered formalin for later histological analysis. For the following parameters, colon length, stool consistency and appearance, and macroscopic damage a scoring system is used to describe the changes. […] Thus, […] Histological analyses of tissues consisted of staining paraffin-embedded tissue sections with hematoxylin-eosin dye. Epithelial damage scores were determined as the fraction of the tissue section showing damaged epithelium. […] Statistical analysis performed in Graphpad Prism 4.0 using ANOVA with Dunnet's or Bonferroni's multiple comparison's test.

[2] = test system: TNBS induced colitis; experiment: Trinitrobenzenesulfonic acid (TNBS) Induced Colitis, rats; assay type: in vivo, Male Wistar rats; conditions: rat
Text: In Vivo Model: Trinitrobenzenesulfonic acid (TNBS) Induced Colitis The TNBS model of experimental colitis (Bobin-Dubigeon, C., Collin, X., Grimaud, N., Robert, J-M., Guillaume Le Baut, G., and Petit, J-Y. Effects of tumour necrosis factor-a synthesis inhibitors on rat trinitrobenzene sulphonic acid-induced chronic colitis. Eur. J. […] These symptomatic signs in the above—mentioned models are similar to what occur in human colitis. Male Wistar rats (200-250 g) are inoculated with 500 microliters of a solution of 10 to 20 mg of TNBS in 30% ethanol delivered intracolonically via catheter or ball-tipped gavage needle to the 8th cm from the anus. When Balb/c female mice (8-12 weeks of age) were used, the inoculation volume was 50 microliters containing 2-3 mg of TNBS in 30% ethanol delivered intracolonically via catheter or ball-tipped gavage needle to the 4th cm from the anus. During the ensuing 7 days, test animals were administered a preparation of an experimental compound. This material may be administered orally, subcutaenously or intraperitoneally, once or twice daily. At the end of this period, the animals were euthanized and their colons were collected for further analysis. Among the parameters analyzed were the length of the colon starting from the anus to the top of the cecum, the weight of the colon, the consistency of any stools found within the colon, the presence or absence of intraperitoneal adhesions on the serosal surfacr of the intestin, and the gross macroscopic appearance of the colon. […] In rats, the distal colon between the 5th and the 8th centimeter is dissected and placed in 10% neutral buffered formalin for later histological analysis. In mice, the 1st to the 4th cm was collected for histological analyses. For the following parameters—colon length, colon weight, stool consistency and appearance and macroscopic damage—a scoring system was used to describe the changes. The four scores for each animal were added to provide a Total Score. […] For the presence of blood in stool, one point was added to scores <3. […] Histological analyses of tissues consisted of staining paraffin-embedded tissue sections with hematoxylin-eosin dye. Epithelial damage scores were determined as the fraction of the tissue section showing damaged epithelium. […] Statistic analyses for these experiments performed with Graphpad Prism 4.0, using ANOVA, with Dunnets or Bonferroni's multiple comparisons test.

[3] = 10 mg/kg sc bid, C57 Black/6 mice
[4] = 30 mg/kg sc bid, C57 Black/6 mice

Compound: COc1cnn(C)c(=O)c1-c1ccc(C[C@H](NC(=O)c2c(Cl)cccc2Cl)C(=O)O)cc1 [Cpd 17]
- % Inhibition of Epithelial Damage Score ([1]; 3 mg/kg sc bid, balb/c mice): 61.11%
- % Inhibition of Total Macroscopic Score ([1]; 3 mg/kg sc bid, balb/c mice): 32.95%
- % Inhibition of Epithelial Damage Score [1, 3]: 33.3%
- % Inhibition of Total Macroscopic Score [1, 3]: −7.2%
- % Inhibition of Epithelial Damage Score ([1]; 10 mg/kg sc bid, balb/c mice): 56.3%
- % Inhibition of Total Macroscopic Score ([1]; 10 mg/kg sc bid, balb/c mice): 30.6%
- % Inhibition of Epithelial Damage Score [1, 4]: 50%
- % Inhibition of Total Macroscopic Score [1, 4]: 11.2%
- % Inhibition of Epithelial Damage Score ([1]; 30 mg/kg sc bid, balb/c mice): 78.1%
- % Inhibition of Total Macroscopic Score ([1]; 30 mg/kg sc bid, balb/c mice): −32.8%
- % Inhibition of Epithelial Damage Score ([2]; 10 mg/kg sc bid): −5.822%
- % Inhibition of Total Macroscopic Score ([2]; 10 mg/kg sc bid): −1.638%
- % Inhibition of Epithelial Damage Score ([2]; 30 mg/kg sc bid): 8.5%
- % Inhibition of Total Macroscopic Score ([2]; 30 mg/kg sc bid): −4.117%
